Measurements published in patent US20080167532A1, “ASSESSING CANCER TREATMENT RESPONSIVENESS” (Mayo Foundation for Medical Education and Research, priority 2006, published 2008).

Tests used:
DRO cells = experiment: DRO cell proliferation (cell counts over six days); assay type: cell-based, human; settings: DRO cells treated every 48 hours over six days; read-out: IC50, concentration at which 50% of cell proliferation was inhibited
Description: . Cells were treated every 48 hours over six days. Cell numbers were counted and data were plotted as mean values ±S.D. The thiazolidinediones inhibited cell proliferation of DRO cells in a dose responsive fashion (FIG. 3B). […]. The EC50 concentrations were in close agreement with the IC50 concentrations for each compound (FIG. 3B).
. […] Cell numbers were counted and data were plotted as mean values ±S.D. (FIG. 9D).
DRO90-1 (DRO) and ARO81 (ARO) cells were derived from primary cultures of human anaplastic thyroid carcinoma tumors that were obtained from Dr. G. J. Juillard (University of California-Los Angeles, Los Angeles, Calif.), and KTC-2 and KTC3 cells were obtained from Dr. Junichi Kurebayashi (Podtcheko et al., J. Clin. Endocrinol. Metab., 88:1889-1896 (2003) and Pushkarev et al., Molecular mechanisms of the Effects of Low Concentrations of Taxol in Anaplastic Thyroid Cancer Cells. Endocrinology: en. 2004-0127 (2004)). Cells were cultured in RPMI 1640 medium (Cellgro, Herndon Va.) supplemented with 10% charcoal-stripped fetal bovine serum (Hyclone), non-essential amino acids, sodium pyruvate, and penicillin-streptomycin-amphotericin B at 37° C. in a humidified atmosphere with 5% CO^2. Charcoal-stripped serum was used to exclude endogenous PPAR ligands contained in serum. For proliferation studies, cells were plated in triplicate in 12-well culture plates at initial concentrations of 2×10^4 cells/well. After overnight incubation, cells were treated with 10 nM RS5444 or DMSO diluent (Sigma) for 6 days with medium, and drug changed every 48 hours. After 6 days, cells were washed with PBS (Cellgro), trypsinized, and counted by Beckman Coulter Counter (Beckman Instruments, Fullerton Calif.). […]. Cells were treated with either DMSO or 10 nM RS5444 (24 hours). After treatment, phase images were obtained on an inverted microscope. For real time PCR studies, cells were plated in 60 mm plates at 50% confluence and treated with 10 nM RS5444 for indicated incubation periods. […].
Cells were either plated in triplicate at 7.5×10^4 cells/mL in 6-well plates or 2×10^4 cells/well in 12-well plates, allowed to adhere overnight, and then transfected for 24 to 72 hours with 2 to 5 μg of either scrambled, p21^WAF1/CIP1 (1022539), RhoB (SI00058933) or PPAR-γ-specific siRNA duplexes (Qiagen Valencia, Calif.) using RNAiFect reagent (Qiagen). The DNA target sequence for PPAR-γ was 5′-[…]-3′. After transfection, cells in the 6-well plates were treated with either DMSO diluent or 10 nM RS5444 for 24 hours and then analyzed by either real time PCR or immunoblotting. Cells in the 12-well plates were exposed for 6 days with medium, and drug changed every 48 hours. After 6 days, cells were washed with PBS (Cellgro), trypsinized, and counted by Beckman Coulter Counter.

DRO = experiment: ATC (DRO) tumor growth in athymic nude mice, RS5444 in diet; assay type: in vivo; settings: for tumor growth inhibition: started one week prior to DRO implantation
Description: RS5444 was added to the rodent diet one week prior to tumor implantation with DRO. […] Suspensions of 1×10^6/0.1 mL DRO or ARO cells in RPMI medium were injected subcutaneously in one flank of 3 to 4 week old athymic female nude mice. […] Mice weighed between 20-25 grams and consumed on average 4 grams of food per day (1 mg/day of RS5444).

PPARγ = target: T1, PPARγ (Homo sapiens, UniProt P37231); experiment: PPRE3-tk-luc reporter (dual luciferase) assay in DRO cells; assay type: cell-based; design: endogenous in cells; host or cells: DRO90-1 (DRO) human anaplastic thyroid carcinoma cells; settings: DRO cells, PPRE3-tk-luc reporter, 24 hours; read-out: EC50, concentration at which 50% maximal transcriptional response occurs
T1 sequence (P37231 1-505): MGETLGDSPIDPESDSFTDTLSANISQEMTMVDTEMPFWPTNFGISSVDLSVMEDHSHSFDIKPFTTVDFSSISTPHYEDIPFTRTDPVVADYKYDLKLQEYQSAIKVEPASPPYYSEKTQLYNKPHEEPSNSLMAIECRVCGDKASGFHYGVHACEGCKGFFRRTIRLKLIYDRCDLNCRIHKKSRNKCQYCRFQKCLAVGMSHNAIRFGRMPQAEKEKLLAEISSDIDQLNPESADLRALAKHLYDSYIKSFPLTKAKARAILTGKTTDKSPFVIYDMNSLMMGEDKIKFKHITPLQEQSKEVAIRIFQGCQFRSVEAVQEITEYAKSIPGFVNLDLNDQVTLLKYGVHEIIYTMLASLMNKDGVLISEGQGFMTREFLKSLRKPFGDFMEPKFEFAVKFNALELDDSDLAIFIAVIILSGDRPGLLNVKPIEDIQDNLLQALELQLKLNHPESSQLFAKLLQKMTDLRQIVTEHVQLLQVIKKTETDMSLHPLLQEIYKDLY
Description: The effects of PPARγ agonists on DRO cells were investigated. […] Firefly luciferase activity was normalized to renilla […] activity (RLU) and plotted as mean values ±S.D. (FIG. 3A).
Cells were transfected with siRNA for 72 hours followed by transfected with a PPRE3-tk-luc reporter and treatment with 10 nM RS5444 for 24 hours. […] Cotransfection with renilla luciferase allowed for normalization to relative light units (RLU).
Cells were plated in 6-well culture plates at initial concentrations of 2×10^5 cells/well. After overnight incubation, cells were transfected with PPRE/luc and CMV/renilla luciferase plasmid using Lipofectamine 2000 (Invitrogen), and after 24 hours, cells were treated with PPAR-γ agonists at indicated concentrations. After 24 hours of drug treatments, cells were washed with PBS and lysed in 1× reporter lysis buffer (Roche), and luciferase activity was measured with a Dual Luciferase assay kit (Promega, Madison Wis.) with a luminometer (Veritas/Turner Biosystems). The enzyme activity was normalized for efficiency of transfection on the basis of renilla activity levels and reported as relative light units (RLU).

For Cc1cc(Oc2ccc3nc(COc4ccc(CC5SC(=O)NC5=O)cc4)n(C)c3c2)cc(C)c1N (stereo not drawn) [RS5444], the IC50 (DRO cells) was ~800 pM, the tumor growth inhibition (DRO; 0.00025% in diet) was “No inhibition of tumor growth” and the tumor growth inhibition (DRO; 0.0025% in diet) was 54.5%. For the same molecule, the “mice that did not form tumors” value (DRO; 0.025% diet group) was 5 of 10, the tumor growth inhibition (DRO; 0.025% in diet) was 89.7% and the EC50 (PPARγ) was ~1000 pM.
